Measured values taken from patent US20110105554A1, “MEANS FOR TREATING MYOSIN-RELATED DISEASES” (KINARIS BIOMEDICALS GMBH, priority 2007, published 2011).

Columns and labels:
[1] = tested on: Saccharomyces cerevisiae cells; assay: Myo2p-dependent changes in mitochondrial morphology in yeast; format: cell-based
Method: FIG. 13: Myo2p-dependent changes in mitochondrial morphology. In yeast cells, the class-5 myosins Myo2p is responsible for the distribution of mitochondria between mother and daughter cells during cytokinesis and has be shown to affect mitochondrial morphology during […]. […] Insets show the same cells viewed under transmitted light. Bar: 5 μm
To test the specific inhibition of myosin-5 function in a cellular context, we exposed Saccharomyces cerevisiae cells to 100 to 500 nM PBP. S. cerevisiae has five myosin heavy chain genes: a myosin-2, two class-1 myosins, and the class-5 myosins Myo2p and Myo4p. Myo2p plays a crucial role in polarized distribution of mitochondria and is required for retention of newly inherited mitochondria in yeast cells during cell division^4-6. Myo4p is required for mRNA transport and facilitates movement of ER tubules into the growing bud. Myo4p null mutants are viable and display no detectable phenotype. Deletion of the myo3 and myo5 genes, encoding class-1 myosins, leads to severe defects in growth and actin cytoskeletal organization. Severe growth defects are also observed upon depletion of the class-2 myosin Myo1p. Therefore, we expected that selective inhibition of class-5 myosins will produce readily detectable changes in the morphology of mitochondria without affecting cell growth and cytokinesis. To facilitate the visual inspection of mitochondrial morphology, we transfected the cells used for these experiments with an expression vector for the production of mitochondria-targeted GFP^7. A yeast mutant strain with myo2 expression under the control of the TetO7 promoter was used as control^8. Repression of the TetO7 promoter by the addition of 10 μg/ml deoxycycline to the culture medium of this strain led to an apparent fragmentation of mitochondria.
Myo2p-dependent changes in mitochondrial morphology. […] Yeast strains producing mitochondria-targeted GFP were supplied by Dr. B. Westermann^7, allowing us to study the morphology of yeast mitochondria in a fluorescence microscope. […] Cells were analyzed at the end of the logarithmic growth phase. […]

myosin-1E = myosin-1E (Dictyostelium discoideum, UniProt Q03479); assay: In vitro motility assay (actin filament sliding), myosin-1E; format: biochemical; conditions: data not shown
Sequence of myosin-1E (Q03479 whole entry, canonical isoform): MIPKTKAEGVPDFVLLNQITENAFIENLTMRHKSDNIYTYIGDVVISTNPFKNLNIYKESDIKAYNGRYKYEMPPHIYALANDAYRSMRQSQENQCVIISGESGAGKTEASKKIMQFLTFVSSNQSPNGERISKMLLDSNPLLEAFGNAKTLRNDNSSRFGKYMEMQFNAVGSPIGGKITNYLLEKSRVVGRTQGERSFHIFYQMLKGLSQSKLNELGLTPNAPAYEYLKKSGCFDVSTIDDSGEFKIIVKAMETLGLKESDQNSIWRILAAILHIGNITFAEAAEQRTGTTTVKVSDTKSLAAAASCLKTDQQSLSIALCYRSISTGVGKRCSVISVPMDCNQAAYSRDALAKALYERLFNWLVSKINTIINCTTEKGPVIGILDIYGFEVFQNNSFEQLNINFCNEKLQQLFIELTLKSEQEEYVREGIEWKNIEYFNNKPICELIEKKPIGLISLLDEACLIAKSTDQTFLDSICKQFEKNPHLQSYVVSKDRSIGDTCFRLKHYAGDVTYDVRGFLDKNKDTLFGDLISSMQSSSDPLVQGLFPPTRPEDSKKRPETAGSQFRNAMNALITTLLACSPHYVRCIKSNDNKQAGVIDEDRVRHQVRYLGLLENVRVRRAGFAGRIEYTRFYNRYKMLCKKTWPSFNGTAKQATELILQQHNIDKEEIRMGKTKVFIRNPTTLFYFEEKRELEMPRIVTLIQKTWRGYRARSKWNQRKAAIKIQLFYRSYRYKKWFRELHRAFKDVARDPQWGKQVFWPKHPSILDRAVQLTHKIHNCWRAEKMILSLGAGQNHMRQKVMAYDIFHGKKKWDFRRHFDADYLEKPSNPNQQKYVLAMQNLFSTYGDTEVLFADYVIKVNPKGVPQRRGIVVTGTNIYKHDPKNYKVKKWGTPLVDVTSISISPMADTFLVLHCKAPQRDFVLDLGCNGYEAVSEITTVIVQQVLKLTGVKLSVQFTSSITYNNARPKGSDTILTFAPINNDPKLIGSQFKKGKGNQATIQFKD
Method: The extent and order of isoform-specific differences in the potency of the inhibitor were additionally confirmed by the results of in vitro motility assays). […] (FIG. 11a) Myosin-5a moves actin filaments with an average velocity of 0.6 μm/s±0.05 (dark bars); addition of 10 μM PBP into the same flow cell lead to a 46-fold reduction of the average sliding velocity to 0.013 μm/s±0.002 (light grey bars).
Direct functional Assays. Actin-sliding motility was performed at 25° C. using an Olympus IX81 inverted fluorescence microscope. Experimental flow cells were constructed using bovine serum albumin (0.5 mg/ml in assay buffer)-coated glass slides and nitrocellulose-coated coverslips. Myosins were actin affinity-purified immediately before use, to remove rigor heads^20. Sliding movement was started by adding assay buffer containing 4 mM ATP, 10 mM DTT, 0.5 mg/ml bovine serum albumin, anti-fade solution, and 0.5% methylcellulose to the flow cell. Average sliding velocity was determined from the Gaussian distribution of automatically tracked actin filaments using DiaTrack 3.0 and Origin 7.0.

myosin-2 = format: biochemical; conditions: 100 μM PBP

Compound: Oc1c(Br)cc(Br)cc1-c1[nH]c(Br)c(Br)c1Br [KIN-43]
- mitochondrial morphology ([1]; 100 nM PBP): closely resembled that of untreated wild-type cells
- mitochondrial morphology ([1]; 500 nM PBP, 12 hours, wild-type cells, listed as PBP): phenotype of Myo2p-depleted cells can be phenocopied
- growth kinetics of yeast cells ([1]; 500 nM, listed as PDP): almost the same growth kinetics as wild type control cultures
- inhibition of actin filament sliding (myosin-1E): No significant inhibition
- fold reduction in the average gliding velocity (myosin-2): 2-to-3 fold
